According to the NIST ThermoML archive (doi:10.1021/je900237e):
± gives the expanded uncertainty stated by the source.

Details: 101.33 kPa, Liquid; for speed of sound: Pulse-echo method; for mass density: Pycnometric method

| Compound | speed of sound (298.15 K) [m/s] | mass density (298.15 K) [kg/m3] | speed of sound (308.15 K) [m/s] |
| --- | --- | --- | --- |
| Cc1ccccc1C [1,2-dimethylbenzene] | 1344 ± 2 | 875.9 ± 0.46 |  |
| Cc1ccc(C)cc1 [1,4-dimethylbenzene] | 1310 ± 2 | 858.63 ± 0.45 |  |
| Cc1ccccc1N [2-methylaniline] |  | 994.28 ± 0.57 | 1603 ± 2.3 |
| c1ccccc1 [benzene] | 1298 ± 5 | 873.64 ± 5.5 |  |
| Cc1ccccc1 [toluene] | 1305 ± 5 | 862.17 ± 5.4 |  |
